Reference: patent US20070173545A1, “Activation of hypoxia-inducible gene expression” (priority 2003, published 2007)
“Also recorded” adds a separate entry of the source.

Experiments:
HRE containing promoter [1] = assay: HRE-GFP reporter in U373 cells; type: cell-based, human; conditions: eight hours, glucose-free medium
From the text: (§1) FIG. 18: 2-oxoacids activate HIF-mediated gene expression in human cell lines Effective gene expression by HIF not only involves HIF protein stabilization via inhibition of HPH enzymes but also HIF-1 binding to DNA, inhibition of FIH-1 activity, and gene transcription (see FIG. 1). (A) Glioma cells used in our studies express FIH-1 as assessed using RT-PCR. […] Expression of beta-actin, a housekeeping gene not under HIF regulation is not affected by pyruvate. […] (E) U373 cell were transfected with a green fluorescent protein (GFP) construct under the control of an HIF regulatory element (HRE) containing promoter and then cultured for eight hours in glucose-free medium under the indicated conditions. […] U251 cells stably transfected with a luciferase construct under the control of an HRE containing promoter were cultured for six hours in glucose free Krebs with the following conditions: 1=control, 2=1% oxygen, 3=pyruvate (2 mM), 4=OAA (2 mM), 5=Ethylpyruvate (2 mM), 6=Glucose (5.5 mM), 7=DMOG (0.5 mM), 8=Lactacystin-beta lactone ([…]).
Effective gene expression by HIF not only involves HIF protein stabilization via inhibition of HPH enzymes but also HIF-1 binding to DNA, inhibition of FIH-1 activity, and gene transcription. The human gliomas that we utilized for most of our studies all express mRNA for FIH-1 (FIG. 18A). […]

HIF-1a protein = assay: HIF-1a levels in nuclear extracts of U87 glioma cells (western blot); type: cell-based, human; conditions: 150 μm DFO, four hours
Procedure: (A) U87 glioma cells cultured in DMEM were switched to Krebs buffer containing 5.5 mM glucose (Glc) and then evaluated for nuclear HIF-1a levels at various times by western blot analysis. (B) HIF-1a levels were measured after four hours incubation of cells in Krebs buffer containing the indicated glucose concentrations or with 5.5 mM 2-deoxyglucose (2-DG) substituted for glucose. (C) HIF-1a levels were measured in U87 cells cultured in glucose-free Krebs buffer following treatment for four hours under normoxia (21% oxygen) hypoxia (1% oxygen) or with 150 μm desferrioxamine (DFO). (D) Induction of HIF-1a by glucose was monitored in the presence of 50 μM IAA or 1 mM 4-CIN. […] Results are representative of experiments repeated at least three times.
Similar measurements were made in the presence of 50 μM IAA or in glucose-free Krebs buffer. […] HIF-1a induction by four hours treatment with 5.5 mM glucose-containing Krebs (Glc) is shown for comparison. (E) Digitonin-permeabilized cells were treated with 1% oxygen or Krebs containing either 5.5 mM glucose or 2 mM pyruvate in the presence of 50 μM IAA. Permeabilized cell in lanes 5 and 6 were treated with 3 mM NAD or NADH respectively in glucose free Krebs. Nuclear HIF-1a levels were determined four hours later. (F) HIF-1a levels were determined after four hour treatment of cells in glucose-free Krebs (lane 1) or 5.5 mM Glucose containing Krebs. […] (H) To measure the decay of the HIF-1a protein, HIF-1a measurements were made after four hour treatment under hypoxia (lane 1), four hours hypoxia followed by 30 minutes normoxia (lane 2), four hour treatment with 150 μM DFO (lane 3), four hours DFO followed by addition of 100 μM CHX for one hour (lane 4), four hours treatment with 2 mM pyruvate (lane 5), and four hours pyruvate followed by addition of 100 μM CHX for one hour (lane 6). (H) HIF-1a levels were determined in digitonin-permeabilized cells treated for four hour with Krebs containing no glucose (lane 1), 1 mM pyruvate (lane 2), or 1 mM pyruvate and 10 mM 2-OG (lane 3).
In order to resolve the biochemical mechanisms underlying this phenomenon, we studied the human glioma cell line U-87 under conditions of carefully defined culture media. Thus we studied these cells while culturing them in freshly prepared Krebs buffer, all components of which were known to us.
To precisely define the glucose metabolite mediating HIF-1a accumulation, we utilized pharmacological inhibitors of glycolysis as well as the direct addition of different glucose metabolites to cells (FIG. 4).

HRE containing promoter [2] = assay: HRE-luciferase reporter in U251 cells; type: cell-based, human; conditions: six hours, glucose free Krebs, pyruvate, OAA, Ethylpyruvate 2 mM, Lactacystin-beta lactone 20 mM
From the text: as §1
FIG. 19: HIF-mediated gene expression is selectively reversed by ascorbate U251 cells stably expressing HRE-luciferase were cultured in glucose-free Krebs buffer with the indicated conditions for eight hours. Pyruvate, oxaloacetate, and DMOG were added at 1 mM each.
Effective gene expression by HIF not only involves HIF protein stabilization via inhibition of HPH enzymes but also HIF-1 binding to DNA, inhibition of FIH-1 activity, and gene transcription. The human gliomas that we utilized for most of our studies all express mRNA for FIH-1 (FIG. 18A). […] To directly assess activation of gene containing an HRE regulated promoter by the glucose metabolites pyruvate and oxaloacetate, we used U373 glioma cells transfected with an HRE-green fluorescent (HRE-GFP) construct that responds to HIF activation.

HPH = HPH activity of extracts of pretreated U251 cells (^35S-pVHL pulldown); type: cell-based, human; conditions: four hours, 1 mM pyruvate or oxaloacetate, DMOG
Procedure: FIG. 17: Inactivation of cellular HPH activity by pyruvate and oxaloacetate U251 cells were cultured for four hours in glucose-free Krebs buffer with or without the indicated additions. Whole cell extracts were then prepared and used as a source of HPH enzyme to hydroxylate a biotinylated peptide from the HIF-1a ODD containing proline 564. Proline hydroxylation was measured by the ability of streptavidin coated beads to pulldown the hydroxyproline ^35S-pVHL complex as in FIGS. 12-14.
To directly determine whether HPH activity had been inactivated by pyruvate or oxaloacetate treatment, we evaluated the ability of U251 cell extracts from pyruvate or oxaloacetate treated cells to hydroxylate HIF-1a peptide using the ^35S-pVHL pulldown assay (Ivan et al. (2002) Proc. Natl. Acad. Sci. USA 99, 13459-13466). In these experiments, ascorbate was omitted from the in vitro portion of the assay.

HIF-1a [3] = assay: HIF-1a induction in digitonin-permeabilized human glioma cells (U87, U251); type: cell-based; conditions: 1 mM doses
Procedure: We determined the ability of each shown structure to induce HIF by exposing digitonin-permeabilized human glioma cells (U87, U251) to 1 mM doses.
At four hours, ATP levels were measured in cell extracts using the luciferase method.
In order to investigate the mechanism of action of the 2-oxoacid HIF inducers that we identified we first determined their effects upon cellular ATP levels. […] As shown in the scheme in FIG. 1, cellular levels of HIF-1a can be elevated by blockade of proteasomal activity, ubiquitinylation, or prolyl hydroxylation. Inhibition of the proteasome by lactacystin beta-lactone (Lbl) leads to accumulation of HIF-1a in its polyubiquitinylated form which generally appears as a smear of higher molecular weight species on western blots. […] Cellular accumulation and nuclear translocation of HIF-1a can also be studied via immunohistochemistry. For this purpose we utilized U251 cells which are more adherent to cell culture dishes that the U87 cells.

[4] = system: HPH homologues 1, 2 and 3; assay: ^35S-pVHL pulldown assay, in vitro translated HPH homologues; type: biochemical, human; conditions: 2-OG analogs at 1 mM, 5 mM or 25 mM [2-OG], ascorbate at 2 mM
Procedure: After incubating the peptide with the HPHs and the indicated reagents, ^35S-pVHL was added followed by addition of streptavidin-coated beads to pull down the HIF-1a peptide. The reaction was pelleted, the pellet was washed and then solubilized for SDS-PAGE analysis followed by autoradiography to reveal the captured ^35S-pVHL. Using in vitro translated HPH homologues we first optimized assay conditions with respect to the required HPH substrates and co-factors. […] Conditions for other reagents were: ascorbate=2 mM, iron sulfate=250 μM, DTT=1 mM. […] Conditions: ascorbate=2 mM, 2-OG=2 mM, DTT=1 mM. […] Conditions: 2-OG=125 μM, iron sulfate=250 μM, DTT=1 mM. […] In all assays 5 μl (about 20 ng) of enzyme and 1 μg of peptide was utilized.
FIG. 13: In vitro effects of 2-OG analogs on recombinant HPH activity HPH activity was assessed via the ^35S-pVHL pulldown assay as in FIG. 11. Activity of in vitro translated HPH homologues was determined in the absence and presence of the 2-OG analogs N-oxalylglycine (NOG), pyruvate or OAA at 1 mM.
To directly evaluate the action of pyruvate and oxaloacetate on HPH activity (step D in FIG. 2) we utilized the commonly used ^35S-pVHL pulldown assay. This assay monitors the ability of HPH homologues to confer ^35S-pVHL binding activity onto a biotinylated 19mer peptide containing the key proline564 residue of the HIF-1a ODD (see FIG. 1). […]

HIF-1a [5] = assay: HIF-1a decay after washout of the inducer in U251 and U87 cells; type: cell-based, human; conditions: 1 mM pyruvate four hours, then glucose free Krebs in normoxia
Procedure: FIG. 16: Ascorbate reverses the prolonged HIF-1a accumulation (A) Comparison of HIF-1a decay in U251 following induction with either hypoxia or pyruvate. U251 cells were cultured in glucose-free Krebs under hypoxia or with 1 mM pyruvate in normoxia for four hours. Following this cells were switched to glucose free Krebs in normoxia and fixed in formaldehyde at the indicated times. Cells were then stained for HIF-1a immunoreactivity. Note the rapid decay of nuclear HIF-1a staining after having been induced by hypoxia versus pyruvate. (B) U87 cell treated for four hours under hypoxia show prominent HIF-1a induction which is completely degraded by thirty minutes of re-oxygenation. U87 cells were treated in glucose-free Krebs buffer with or without 1 mM pyruvate or oxaloacetate.
HPH-2 has been reported to constitute the major HPH activity of most cells. We therefore evaluated the ability of ascorbate to prevent HIF-1a accumulation by pyruvate and oxaloacetate in living cells. […] To test this possibility we compared the reversibility of HIF-1a accumulation following induction with either hypoxia, pyruvate, or oxaloacetate. The rationale for these experiments stems from the well-known reversible inhibition of HPH activity by hypoxia (see FIG. 1). Thus HIF-1a accumulation and HIF activation during hypoxia is rapidly reversed upon re-oxygenation. […]

**Q.** For `CC(=O)N(O)CCCCCNC(=O)CCC(=O)N(O)CCCCCNC(=O)CCC(=O)N(O)CCCCCN` [DFO, desferrioxamine], which HRE-GFP expression (HRE containing promoter [1]) is on record?
**A.** The HRE-GFP expression was “activated HRE-GFP expression; also recorded: GFP (green fluorescence) was expressed”.

**Q.** And the “HIF-1a levels in glucose-free Krebs buffer” value (HIF-1a protein)?
**A.** Its value is “still upregulate HIF-1a protein in the absence of glucose”.

**Q.** What about the HRE-luciferase expression (HRE containing promoter [2]) of the same molecule?
**A.** Its HRE-luciferase expression is “enhanced HRE-luciferase expression”.

**Q.** What does the source list for `COC(=O)CNC(=O)C(=O)OC` [DMOG, dimethyloxalylglycine]?
**A.** HPH activity of extracts of pretreated cells (HPH): No such pretreatment-induced inhibition; also recorded: no such loss of HPH activity; Ability to induce HIF (HIF-1a accumulation), structure-activity (HIF-1a [3]): consistently enhanced HIF-1a levels

**Q.** How did the “Inhibition of 2-OG catalyzed HPH activity” value [4] turn out when `O=C(O)CNC(=O)C(=O)O` [NOG, N-oxalylglycine] was run?
**A.** The value was “inhibition by NOG is clearly evident”.

**Q.** And the “Ability to induce HIF (HIF-1a accumulation), structure-activity” value (HIF-1a [3])?
**A.** Its value is “consistently enhanced HIF-1a levels”.

**Q.** Which “Persistence of HIF-1a accumulation after washing out” value (HIF-1a [5]) does the source give for `CC(=O)C(=O)O` [pyruvate] here?
**A.** The value was over 40 min.
